Literature values as cited in US20060193783A1, “Low dose corticosteroid composition” (priority 2003, published 2006).

How the values were obtained:
[1] = used nasally

Structure (SMILES) | solubility in water | nasal irritation [1]
CCCC1O[C@@H]2C[C@H]3[C@@H]4CCC5=CC(=O)C=C[C@]5(C)[C@H]4[C@@H](O)C[C@]3(C)[C@]2(C(=O)CO)O1 (some centres unmarked) [Budesonide] | virtually insoluble in water | –
CN1CCCC1=O [N-methyl pyrrolidone] | – | does not cause any nasal irritation
